# Experimental data: patent publication US12187713B2, “Immunomodulators, compositions and methods thereof” (Betta Pharmaceuticals Co., Ltd, priority 2019, dated 2025)
# pIC50: −log10 of the molar value.
# Biological target: PD-1/PD-L1 (Homo sapiens (Human), UniProt Q9NZQ7)
# Assay: PD-1/PD-L1 Binding Assay (Alphascreen)
# Method in brief: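 PD-1/PD-L1 binding detected by anti-6×His acceptor and streptavidin donor beads after 120 min in the dark at 25 °C. Beforehand, the two proteins were incubated 15 min at 25 °C with inhibitor at 0.015–300 nM (1% DMSO). IC50 comes from a log concentration–response curve.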
# Sequence of PD-1/PD-L1 (Q9NZQ7 19-238): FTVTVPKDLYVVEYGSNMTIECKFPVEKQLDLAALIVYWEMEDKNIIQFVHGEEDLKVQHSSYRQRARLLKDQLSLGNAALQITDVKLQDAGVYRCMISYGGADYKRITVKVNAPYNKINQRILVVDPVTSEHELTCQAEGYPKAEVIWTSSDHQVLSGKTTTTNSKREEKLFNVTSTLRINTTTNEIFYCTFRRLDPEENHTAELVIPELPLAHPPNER
Compound,pIC50 (range symbols),pIC50 (numeric values)
"Cc1c(-c2nc3c(o2)CCN(CCC(=O)O)C3)cccc1-c1cccc(-c2nc3cc(CN4CCC[C@H]4C(=O)O)c(OC(F)F)cc3o2)c1C [Example 187, ((2-(3′-(5-(2-carboxyethyl)-4,5,6,7-tetrahydrooxazolo[4,5-c]pyridin-2-yl)-2,2′-dimethyl-[1,1′-biphenyl]-3-yl)-6-(difluoromethoxy)benzo[d]oxazol-5-yl)methyl)-L-proline]",8.30 to 10.00,–
"COc1nc(-c2cccc(-c3cccc(-c4nc5cc(CN6CCC[C@@H]6C(=O)O)c(OC(F)F)cc5o4)c3C)c2C)ccc1CN1CC[C@H](C)C1 [Example 273, ((6-(difluoromethoxy)-2-(3′-(6-methoxy-5-(((S)-3-methylpyrrolidin-1-yl)methyl)pyridin-2-yl)-2,2′-dimethyl-[1,1′-biphenyl]-3-yl)benzo[d]oxazol-5-yl)methyl)-D-proline]",7.30 to 8.30,–
"Cc1c(-c2nc3cc(CNCC4(CO)CC(F)(F)C4)c(OC(F)F)cc3o2)cccc1-c1cccc(-c2nc3cc(CN4CCC[C@H]4C(=O)O)c(OC(F)F)cc3o2)c1C [Example 73, ((2-(3′-(5-((((3,3-difluoro-1-(hydroxymethyl)cyclobutyl)methyl)amino)methyl)-6-(difluoromethoxy)benzo[d]oxazol-2-yl)-2,2′-dimethyl-[1,1′-biphenyl]-3-yl)-6-(difluoromethoxy)benzo[d]oxazol-5-yl)methyl)-L-proline]",–,9.38
"Cc1c(-c2nc3cc(CN4CCC[C@H]4C(=O)O)c(OC(F)F)cc3o2)cccc1-c1cccc(N2CCC(CN3CCCC3)CC2)c1C [Example 309, ((6-(difluoromethoxy)-2-(2,2′-dimethyl-3′-(4-(pyrrolidin-1-ylmethyl)piperidin-1-yl)-[1,1′-biphenyl]-3-yl)benzo[d]oxazol-5-yl)methyl)-L-proline]",8.30 to 10.00,–
"Cc1c(Nc2nccc3cc(CN4CCC4)cnc23)cccc1-c1cccc(-c2nc3cc(CN4CCC[C@H]4C(=O)O)c(OC(F)F)cc3o2)c1C [Example 177, ((2-(3′-((3-(azetidin-1-ylmethyl)-1,7-naphthyridin-8-yl)amino)-2,2′-dimethyl-[1,1′-biphenyl]-3-yl)-6-(difluoromethoxy)benzo[d]oxazol-5-yl)methyl)proline]",–,9.03
"Cc1c(-c2nc3cc(CN4CC(=CC#N)C4)c(OC(F)F)cc3o2)cccc1-c1cccc(-c2nc3cc(CN4CCC[C@H]4C(=O)O)c(OC(F)F)cc3o2)c1C [Example 82, ((2-(3′-(5-((3-(cyanomethylene)azetidin-1-yl)methyl)-6-(difluoromethoxy)benzo[d]oxazol-2-yl)-2,2′-dimethyl-[1,1′-biphenyl]-3-yl)-6-(difluoromethoxy)benzo[d]oxazol-5-yl)methyl)-L-proline]",8.30 to 10.00,–
"Cc1c(-c2nc3cc(CN4CCC[C@H]4C(=O)O)c(OC(F)F)cc3o2)cccc1-c1cccc(-c2nc3cc(CN4CCC(F)C4)cc(C(F)(F)F)c3o2)c1C (stereo partly drawn) [Example 166, ((6-(difluoromethoxy)-2-(3′-(5-((3-fluoropyrrolidin-1-yl)methyl)-7-(trifluoromethyl)benzo[d]oxazol-2-yl)-2,2′-dimethyl-[1,1′-biphenyl]-3-yl)benzo[d]oxazol-5-yl)methyl)-L-proline]",7.30 to 8.30,–
"Cc1c(-c2ccc3c(c2)CNC3)cccc1-c1cccc(-c2nc3cc(CN4CCC[C@H]4C(=O)O)c(OC(F)F)cc3o2)c1C [Example 289, ((6-(difluoromethoxy)-2-(3′-(isoindolin-5-yl)-2,2′-dimethyl-[1,1′-biphenyl]-3-yl)benzo[d]oxazol-5-yl)methyl)-L-proline]",–,9.18
"Cc1c(-c2nc3cc(CN4CC5COCC5C4)c(OC(F)F)cc3o2)cccc1-c1cccc(-c2nc3cc(CN4CCC[C@H]4C(=O)O)c(OC(F)F)cc3o2)c1C (stereo partly drawn) [Example 55, ((6-(difluoromethoxy)-2-(3′-(6-(difluoromethoxy)-5-((tetrahydro-1H-furo[3,4-c]pyrrol-5(3H)-yl)methyl)benzo[d]oxazol-2-yl)-2,2′-dimethyl-[1,1′-biphenyl]-3-yl)benzo[d]oxazol-5-yl)methyl)-L-proline]",–,9.24
